Data published in patent US20110173709A1, “ECTOPIC, ORTHOTOPIC MODEL FOR REVASCULARIZATION AND TUMOR ASSESSMENT” (Sidney Kimmel Cancer Center, priority 2007, published 2011).

Test system: N202-H2BGFP tumor spheroids
Experiment: Doxorubicin treatment of N202-H2BGFP tumor spheroids in dorsal skinfold window chamber
Format: in vivo, mouse
Conditions: single dose 1 or 5 mg/kg via the tail vein after re-vascularization, nu/nu nude mice

COc1cccc2c1C(=O)c1c(O)c3c(c(O)c1C2=O)C[C@@](O)(C(=O)CO)C[C@@H]3O[C@H]1C[C@H](N)[C@H](O)[C@H](C)O1 [Doxorubicin]
effect on the growing tumor implanted on the engrafted mammary fat pad (orthotopic engrafted mammary fat pad, over a 2 week period, FIG. 6B): little to no effect | effect on the growing tumor implanted on the skinfold (tumor implanted on skinfold, FIG. 6A): essentially tumor stasis
